In PMC7815716, “Mechanistic basis of breast cancer resistance protein inhibition by new indeno[1,2-b]indoles” (Scientific Reports, 2021):
“Also recorded” adds a separate entry of the source. Read-outs that look alike come from different tables or passages of the source.

Key:
HEK293-ABCG2 cells = assay: Sensitization of ABCG2-transfected cells to SN-38, MTT assay; type: cell-based, human; details: for Chemosensitization to SN-38: HEK293-ABCG2, 72 h co-treatment, IC50 value or 5 µM; for FR, fold reversal: vs HEK293 WT
Description: Cell viability was evaluated with a 3-(4,5-dimethylthiazol-2-yl)-2,5-diphenyltetrazolium bromide (MTT) colorimetric assay. HEK293 WT and HEK293-ABCG2 cells were seeded into 96-well culture plates at a 1.5 × 10^4 cells/well density. After overnight incubation, the cells were treated with various concentrations of compounds (0–100 µM) for 72 h at 37 °C under 5% CO2. […] Sensitization experiments were also carried out on H460 and H460MX20 cells. For these experiments, H460 and H460MX20 cells were seeded into 96-well culture plates at 1.0 × 10^4 cells/well density. […] After the treatment, the culture medium was removed and 100 μL of a 0.5 mg.mL^−1 MTT solution was added. Cells were then incubated for 4 h at 37 °C under 5% CO2. The formazan crystals were dissolved with a solution of DMSO/ethanol (1:1) and the absorbance was measured at 570 nm using a Multiscan FC microplate reader (Thermo Scientific). The results were expressed as percentage of viable cells versus control cells (0.1% DMSO, v/v) taken as 100%.

ABCC1 (MRP1) = biological target: T1, ABCC1 (MRP1) (Homo sapiens, UniProt P33527); assay: ABCC1 (MRP1) calcein-AM transport inhibition in BHK21-ABCC1 cells; type: cell-based; details: 1 and 10 µM; for Inhibition of MRP1-mediated transport: calcein-AM
T1 construct: expressed in transfected cells; host or cells: BHK21
Description: (§1) ABCG2 inhibition assays were carried out on HEK293 WT and HEK293-ABCG2 cells. Cells were seeded at the density of 1 × 10^5 cells/well in 24 well culture plates and incubated for 48 h at 37 °C under 5% CO2. Cells were treated with compounds and 10 μM of mitoxantrone for 30 min at 37 °C and 5% CO2. After incubation the cells were washed with PBS, trypsinized and resuspended in ice cold PBS. The intracellular drug fluorescence was monitored with a FACS Calibur cytometer (Becton Dickinson) using the FL4 channel, with at least 10,000 events collected. The maximal fluorescence (taken as 100%) was determined with the difference between the mean fluorescence of HEK-ABCG2 cells incubated with 0.5 μM Ko143 (ABCG2 reference inhibitor) or by using the HEK293 WT cell line as a control and cells without inhibitor (mitoxantrone alone). The percent of inhibition was determined as previously described. For bimodulation assays the cells were concomitantly treated with 10 μM of one or two combined inhibitors under similar conditions as described previously. For washing assays, cells were treated with 10 μM concentrations of compounds for 30 min. Then, the medium with the inhibitor was removed and the cells were washed with PBS and incubated only with culture medium for different periods of time (0.5 and 3 h). After incubation, cells were exposed to 5 µM mitoxantrone for 30 min, and then analyzed by flow cytometry. The percentage of transport inhibition was calculated by the following equation: %Inhibition=C-S/I-S×100 where “C” corresponds to the intracellular fluorescence of cells in the presence of the tested compounds and substrate (mitoxantrone to ABCG2, Rhodamine 123 to ABCB1 and calcein to ABCC1), “S” corresponds to the intracellular fluorescence of cells in the presence of substrate alone, and “I” corresponds to the intracellular fluorescence of cells in the presence of the substrate and reference inhibitor (Ko143 to ABCG2, GF120918 to ABCB1 and verapamil to ABCC1).
ABCB1 (P-gp) and ABCC1 (MRP1) inhibition assays were carried out on NIH3T3 WT and NIH3T3-ABCB1 or BHK21 WT and BHK21-ABCC1 cell lines. Cells were treated with 5 μM rhodamine 123 or 0.2 μM calcein-AM as substrates, and with or without GF120918 (0.5 μM) or verapamil (30 μM) as reference inhibitors, for ABCB1 and ABCC1, respectively. Compounds were assayed at 1 and 10 µM. The same procedure and calculation to determine the percentage of inhibition were used for ABCG2 inhibition assays. The intracellular fluorescence was monitored with a FACS Calibur cytometer (Becton Dickinson) using the FL1 channel.

ABCG2 = biological target: T2, ABCG2 (Homo sapiens, UniProt Q9UNQ0); assay: Inhibition of ABCG2-mediated mitoxantrone efflux (flow cytometry); type: cell-based; design: expressed in transfected cells; host or cells: HEK293; details: for inhibition at 30 min: human, probe mitoxantrone (10 µM), from IC50 fitted curves, HEK293-ABCG2, mitoxantrone, 100% = Ko143 0.5 µM, read-out: IMAX (%) ± SD, maximal inhibition percentage; for Class of inhibitor by IMAX (complete or partial): threshold at 80% on IMAX values
T2 sequence (Q9UNQ0 1-655): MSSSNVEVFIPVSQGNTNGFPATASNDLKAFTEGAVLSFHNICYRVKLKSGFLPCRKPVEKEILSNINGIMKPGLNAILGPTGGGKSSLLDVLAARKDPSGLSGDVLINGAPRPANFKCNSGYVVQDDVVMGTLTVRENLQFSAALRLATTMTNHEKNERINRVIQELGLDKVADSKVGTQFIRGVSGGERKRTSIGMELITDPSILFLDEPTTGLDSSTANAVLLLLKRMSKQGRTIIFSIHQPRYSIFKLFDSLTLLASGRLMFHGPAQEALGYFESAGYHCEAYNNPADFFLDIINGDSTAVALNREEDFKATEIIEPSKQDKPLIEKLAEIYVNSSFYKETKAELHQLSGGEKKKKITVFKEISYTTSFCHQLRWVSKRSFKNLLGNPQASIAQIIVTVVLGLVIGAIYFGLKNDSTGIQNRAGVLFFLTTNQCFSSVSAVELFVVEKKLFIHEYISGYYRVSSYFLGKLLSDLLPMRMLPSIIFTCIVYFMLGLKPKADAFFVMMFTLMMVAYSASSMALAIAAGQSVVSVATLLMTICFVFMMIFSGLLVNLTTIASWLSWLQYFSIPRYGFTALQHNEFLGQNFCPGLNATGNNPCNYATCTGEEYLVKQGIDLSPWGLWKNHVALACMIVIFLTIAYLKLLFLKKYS
Description: as §1

[1] = HEK293-ABCG2, SN-38 + inhibitor at 5 µM
[2] = HEK293-ABCG2, SN-38 + inhibitor at its IC50 value

T1 sequence (P33527 whole entry): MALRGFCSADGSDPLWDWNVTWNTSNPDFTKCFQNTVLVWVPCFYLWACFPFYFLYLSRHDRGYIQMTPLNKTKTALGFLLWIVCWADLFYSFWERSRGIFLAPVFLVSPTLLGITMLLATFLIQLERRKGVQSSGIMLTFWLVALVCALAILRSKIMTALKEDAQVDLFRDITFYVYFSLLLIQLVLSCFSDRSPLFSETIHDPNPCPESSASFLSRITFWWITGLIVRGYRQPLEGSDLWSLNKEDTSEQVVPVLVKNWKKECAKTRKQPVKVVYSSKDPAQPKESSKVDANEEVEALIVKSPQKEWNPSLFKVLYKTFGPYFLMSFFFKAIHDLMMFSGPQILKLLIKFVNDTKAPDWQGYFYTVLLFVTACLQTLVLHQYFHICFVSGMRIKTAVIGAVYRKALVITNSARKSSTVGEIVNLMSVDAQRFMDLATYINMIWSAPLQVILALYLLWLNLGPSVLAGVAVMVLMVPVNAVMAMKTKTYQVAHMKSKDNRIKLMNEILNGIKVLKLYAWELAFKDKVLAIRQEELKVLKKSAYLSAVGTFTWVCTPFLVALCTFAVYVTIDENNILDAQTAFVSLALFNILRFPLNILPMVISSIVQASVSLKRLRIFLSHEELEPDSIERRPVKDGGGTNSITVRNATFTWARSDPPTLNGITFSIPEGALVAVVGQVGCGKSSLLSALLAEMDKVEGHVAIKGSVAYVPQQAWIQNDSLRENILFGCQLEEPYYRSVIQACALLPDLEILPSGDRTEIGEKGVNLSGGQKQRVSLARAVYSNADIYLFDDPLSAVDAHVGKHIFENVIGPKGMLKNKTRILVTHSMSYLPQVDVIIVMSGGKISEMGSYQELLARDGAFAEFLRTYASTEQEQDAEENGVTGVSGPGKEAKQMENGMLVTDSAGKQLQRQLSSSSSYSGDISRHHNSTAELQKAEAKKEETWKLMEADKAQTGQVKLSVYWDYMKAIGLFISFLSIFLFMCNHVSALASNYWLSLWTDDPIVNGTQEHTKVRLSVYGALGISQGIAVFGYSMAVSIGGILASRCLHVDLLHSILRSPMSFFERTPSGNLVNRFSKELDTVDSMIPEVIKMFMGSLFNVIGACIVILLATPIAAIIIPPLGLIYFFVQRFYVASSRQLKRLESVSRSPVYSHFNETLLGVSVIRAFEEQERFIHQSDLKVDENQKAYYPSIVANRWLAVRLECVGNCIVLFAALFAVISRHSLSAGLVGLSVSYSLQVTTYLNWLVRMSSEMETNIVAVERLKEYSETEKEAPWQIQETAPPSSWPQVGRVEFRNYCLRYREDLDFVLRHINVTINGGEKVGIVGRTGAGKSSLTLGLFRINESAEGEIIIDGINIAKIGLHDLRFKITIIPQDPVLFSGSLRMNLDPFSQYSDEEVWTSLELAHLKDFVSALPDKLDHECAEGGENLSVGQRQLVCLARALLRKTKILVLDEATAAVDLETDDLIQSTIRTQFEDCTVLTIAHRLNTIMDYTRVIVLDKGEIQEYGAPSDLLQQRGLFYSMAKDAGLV

COc1cc2c(cc1OC)-c1c(c3c(n1CCc1ccccc1)CC(C)CC3=O)C2=O (stereo not drawn) [5e, 2,3-Dimethoxy-7-methyl-5-phenethyl-5,6,7,8-tetrahydroindeno[1,2-b]indole-9,10-dione]
Chemosensitization to SN-38 (HEK293-ABCG2 cells): efficiently chemosensitize | FR, fold reversal (HEK293-ABCG2 cells; [1]): 3.08 | FR, fold reversal (HEK293-ABCG2 cells; [2]): 9.51 | Inhibition of MRP1-mediated transport (ABCC1 (MRP1)): partially inhibited | IC50 (ABCG2; HEK293-ABCG2 cells, mitoxantrone 10 µM, 30 min, read-out: IC50 (µM) ± SD, inhibition of ABCG2-mediated mitoxantrone efflux): 0.15 ± 0.08 µM | inhibition at 30 min (ABCG2; HEK293-ABCG2 cells): 36.9 ± 1.16% | Class of inhibitor by IMAX (complete or partial) (ABCG2): partial (partial (IMAX ≤ 80% of ABCG2 inhibition))

COc1ccccc1CCn1c2c(c3c(O)cc(C)cc31)C(=O)c1ccccc1-2 [6a, 9-Hydroxy-7-methyl-5-(2-methoxyphenethyl)-5H-indeno[1,2-b]indol-10(5H)-one]
Chemosensitization to SN-38 (HEK293-ABCG2 cells): efficiently chemosensitize | FR, fold reversal (HEK293-ABCG2 cells; [1]): 0.47 | FR, fold reversal (HEK293-ABCG2 cells; [2]): 0.82 | Selectivity toward ABCG2 versus P-gp and MRP1 (ABCC1 (MRP1)): specific ABCG2 inhibitor; also recorded: completely selective to ABCG2 | IC50 (ABCG2): 0.21 ± 0.03 µM | inhibition at 30 min (ABCG2; HEK293-ABCG2 cells): 62.6 ± 2.3% | Class of inhibitor by IMAX (complete or partial) (ABCG2): partial (partial (IMAX ≤ 80% of ABCG2 inhibition))

COc1ccc2[nH]cc(CCn3c4c(c5c(O)cccc53)C(=O)c3ccccc3-4)c2c1 [6c, 9-Hydroxy-5-(2-(5-methoxy-1H-indol-3-yl)ethyl)indeno[1,2-b]indol-10(5H)-one]
FR, fold reversal (HEK293-ABCG2 cells; [1]): 0.37 | FR, fold reversal (HEK293-ABCG2 cells; [2]): 1.13 | Inhibition of MRP1-mediated transport (ABCC1 (MRP1)): partially inhibited | IC50 (ABCG2): 0.48 ± 0.1 µM | inhibition at 30 min (ABCG2; HEK293-ABCG2 cells): 90.5 ± 8.07%

COc1cccc(CCn2c3c(c4c(O)cccc42)C(=O)c2ccc(O)cc2-3)c1 [6d, 3,9-Dihydroxy-5-(3-methoxyphenethyl)indeno[1,2-b]indol-10(5H)-one]
FR, fold reversal (HEK293-ABCG2 cells; [1]): 0.64 | FR, fold reversal (HEK293-ABCG2 cells; [2]): 12.48 | Inhibition of MRP1-mediated transport (ABCC1 (MRP1)): partially inhibited | IC50 (ABCG2): 0.19 ± 0.04 µM | inhibition at 30 min (ABCG2; HEK293-ABCG2 cells): 84.8 ± 2.51%
